target: T1, hERG1 (Homo sapiens, UniProt Q12809); assay: Whole cell patch-clamp of hERG1 currents in transfected HEK 293 cells; type: cell-based; design: Inactivation ΔV0.3: unit not given here; conditions: Conc. 10 µM; deactivation time constant relative to baseline
T1 construct: expressed in transfected cells; host or cells: HEK 293
Method: Transfected HEK cells on glass cover slips were placed in a chamber mounted on a modified stage of an inverted microscope. The chamber was superfused at a rate of 2 mL/min with a normal external solution. The extracellular solution contained (in mM) NaCl 140, KCl 5.4, CaCl2 1, MgCl2 1, HEPES 5, glucose 5.5, pH 7.4, with NaOH. Micropipettes were pulled from borosilicate glass capillary tubes on a programmable horizontal puller (Sutter Instruments, Novato, CA). Standard patch-clamp methods were used to measure the whole cell currents of hERG1 mutants expressed in HEK 293 cells using the AXOPATCH 200B amplifier (Axon Instruments). Unless otherwise indicated, tail currents were recorded when the voltage was returned to −50 mV from +50 mV. Further details on electrophysiological methods are collected in Methods S1.
Electrophysiology Protocol:
The pipette solution contained the following (at mM concentration): KCl 10, K-aspartate 110, MgCl2 5, Na2ATP 5, EGTA 10, HEPES 5, and CaCl2 1. The solution was adjusted to pH 7.2 with KOH. The extracellular solution contained the following (at mM concentration): NaCl 140, KCl 5.4, CaCl2 1, MgCl2 1, HEPES 5, and glucose 5.5. The solution was adjusted to pH 7.4 with NaOH. For IKr measurements, the whole cell configuration of the patch clamp method was used. The series resistance was less than 7
MΩ. The data were sampled at 1 kHz. The holding potential was -80 mV. The activation of hERG tail currents was induced by depolarization to a range of potentials from +50 to -100 mV in 10 mV steps for 1 second. This was followed by repolarization to -100 mV for 1 second to record the tail currents.
-100 mV, a -120 mV 1 second pre-pulse was applied to completely close the hERG channels before subsequent depolarization. All of the tail currents reported in this manuscript represent dofetilide-sensitive currents. The inactivation of hERG was measured by a previously reported triple-pulse protocol5, 6. The holding potential was -80 mV. The hERG channel was first depolarized to +50 mV for 1 second. Recovery from inactivation was achieved using a short pulse (a 10 ms hyperpolarization) to -120 mV, followed by the application of test pulses from -100 to 0 mV for 1 second in 10 mV steps.
A voltage of -100 mV was selected because it was on the flat part of the inactivation-voltage relationship. The methods employed are identical to ones previously reported. […]

T1 sequence (Q12809 whole entry): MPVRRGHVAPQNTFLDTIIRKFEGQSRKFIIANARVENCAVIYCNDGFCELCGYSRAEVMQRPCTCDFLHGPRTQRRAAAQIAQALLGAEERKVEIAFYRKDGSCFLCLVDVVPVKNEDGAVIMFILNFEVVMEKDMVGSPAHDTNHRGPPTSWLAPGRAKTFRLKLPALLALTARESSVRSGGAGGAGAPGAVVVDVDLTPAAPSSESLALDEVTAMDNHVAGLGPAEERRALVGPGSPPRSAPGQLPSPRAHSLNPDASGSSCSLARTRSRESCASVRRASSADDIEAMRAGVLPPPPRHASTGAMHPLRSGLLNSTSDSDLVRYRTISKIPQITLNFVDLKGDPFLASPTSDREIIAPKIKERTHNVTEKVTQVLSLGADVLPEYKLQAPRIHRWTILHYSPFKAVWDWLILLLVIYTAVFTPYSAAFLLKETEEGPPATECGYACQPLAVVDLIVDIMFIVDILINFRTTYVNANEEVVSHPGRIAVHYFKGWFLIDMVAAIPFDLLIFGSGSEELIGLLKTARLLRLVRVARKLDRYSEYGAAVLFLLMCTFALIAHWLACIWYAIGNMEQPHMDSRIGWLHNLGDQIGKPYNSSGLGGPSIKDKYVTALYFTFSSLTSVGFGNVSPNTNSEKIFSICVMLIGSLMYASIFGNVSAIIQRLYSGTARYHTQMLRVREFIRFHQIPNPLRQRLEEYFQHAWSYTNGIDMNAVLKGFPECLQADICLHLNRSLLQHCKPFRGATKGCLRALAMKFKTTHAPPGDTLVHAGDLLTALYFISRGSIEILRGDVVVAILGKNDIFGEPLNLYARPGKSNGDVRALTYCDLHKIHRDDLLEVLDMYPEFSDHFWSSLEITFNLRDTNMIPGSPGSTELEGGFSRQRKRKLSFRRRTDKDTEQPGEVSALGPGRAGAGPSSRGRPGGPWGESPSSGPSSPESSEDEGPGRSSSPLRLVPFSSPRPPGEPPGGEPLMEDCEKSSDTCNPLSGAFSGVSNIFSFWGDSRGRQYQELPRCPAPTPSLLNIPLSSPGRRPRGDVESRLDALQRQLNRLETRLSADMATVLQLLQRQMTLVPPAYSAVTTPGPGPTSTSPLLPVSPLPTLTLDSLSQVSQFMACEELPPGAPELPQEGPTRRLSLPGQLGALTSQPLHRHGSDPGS

Structure (SMILES)	Deactivation Δλ/λcon
COCOc1ccc(C(F)(F)F)cc1NC(=O)NC(=O)[C@H](C)NS(=O)(=O)c1ccc([N+](=O)[O-])cc1 [Compound 15]	−0.1±0.1
COCOc1ccc(C(F)(F)F)cc1NC(=O)NC(=O)[C@H](C)N [Compound 16]	−0.07±0.1
COCOc1ccc(C(F)(F)F)cc1NC(=O)NC(=O)[C@H](C)N(Cc1ccccc1)Cc1ccccc1 [Compound 17]	0.07±0.08

same assay, conditions: Conc. 10 µM; shift in voltage-dependence of activation

Structure (SMILES)	Activation V1/2 (mV)
COCOc1ccc(C(F)(F)F)cc1NC(=O)NC(=O)[C@H](C)NS(=O)(=O)c1ccc([N+](=O)[O-])cc1 [Compound 15]	−3±3
COCOc1ccc(C(F)(F)F)cc1NC(=O)NC(=O)[C@H](C)N [Compound 16]	−7±2
COCOc1ccc(C(F)(F)F)cc1NC(=O)NC(=O)[C@H](C)N(Cc1ccccc1)Cc1ccccc1 [Compound 17]	−5±0.6

same assay, conditions: Conc. 10 µM; shift in voltage-dependence of activation; listed as MC-I-153b

Structure (SMILES)	Activation V1/2 (mV)
COCOc1ccc(C(F)(F)F)cc1NC(=O)NC(=O)[C@H](C)N [Compound 16]	shifts V1/2 of activation to hyperpolarized potentials

same assay, conditions: Conc. 10 µM; shift in voltage-dependence of inactivation

Structure (SMILES)	Inactivation ΔV0.3
COCOc1ccc(C(F)(F)F)cc1NC(=O)NC(=O)[C@H](C)NS(=O)(=O)c1ccc([N+](=O)[O-])cc1 [Compound 15]	−11±2
COCOc1ccc(C(F)(F)F)cc1NC(=O)NC(=O)[C@H](C)N(Cc1ccccc1)Cc1ccccc1 [Compound 17]	−1±0.6

same assay, conditions: Conc. 10 µM; tail current relative to baseline

Structure (SMILES)	Amplitude I/Icon
COCOc1ccc(C(F)(F)F)cc1NC(=O)NC(=O)[C@H](C)NS(=O)(=O)c1ccc([N+](=O)[O-])cc1 [Compound 15]	0.7±0.12
COCOc1ccc(C(F)(F)F)cc1NC(=O)NC(=O)[C@H](C)N [Compound 16]	0.6±0.06

same assay, conditions: Conc. 10 µM; tail current relative to baseline; listed as MC-I-153b

Structure (SMILES)	Amplitude I/Icon
COCOc1ccc(C(F)(F)F)cc1NC(=O)NC(=O)[C@H](C)N [Compound 16]	0.6

same assay, conditions: Conc. 20 µM; deactivation time constant relative to baseline

Structure (SMILES)	Deactivation Δλ/λcon
C[C@H](NCc1ccccc1)C(=O)NC(=O)Nc1cc(C(F)(F)F)ccc1O [Compound 2]	0.6±0.4
C[C@H](NC(=O)c1ccccc1)C(=O)NC(=O)Nc1cc(C(F)(F)F)ccc1O [Compound 6]	0.8±0.1

same assay, conditions: Conc. 20 µM; shift in voltage-dependence of activation

Structure (SMILES)	Activation V1/2 (mV)
C[C@H](NCc1ccccc1)C(=O)NC(=O)Nc1cc(C(F)(F)F)ccc1O [Compound 2]	−14.5±5.5
C[C@H](NC(=O)c1ccccc1)C(=O)NC(=O)Nc1cc(C(F)(F)F)ccc1O [Compound 6]	−3.7±0.7

same assay, conditions: Conc. 20 µM; shift in voltage-dependence of inactivation

Structure (SMILES)	Inactivation ΔV0.3
C[C@H](NCc1ccccc1)C(=O)NC(=O)Nc1cc(C(F)(F)F)ccc1O [Compound 2]	−21±0.0
C[C@H](NC(=O)c1ccccc1)C(=O)NC(=O)Nc1cc(C(F)(F)F)ccc1O [Compound 6]	−2.5±1.5

same assay, conditions: Conc. 20 µM; tail current relative to baseline

Structure (SMILES)	Amplitude I/Icon
C[C@H](NCc1ccccc1)C(=O)NC(=O)Nc1cc(C(F)(F)F)ccc1O [Compound 2]	0.4±0.02
C[C@H](NC(=O)c1ccccc1)C(=O)NC(=O)Nc1cc(C(F)(F)F)ccc1O [Compound 6]	0.7±0.02

same assay, conditions: Conc. 30 µM; deactivation time constant relative to baseline

Structure (SMILES)	Deactivation Δλ/λcon
COCOc1ccc(C(F)(F)F)cc1NC(=O)NC(=O)[C@H](C)NS(=O)(=O)c1ccc([N+](=O)[O-])cc1 [Compound 15]	−0.01±0.07

same assay, conditions: Conc. 30 µM; shift in voltage-dependence of activation

Structure (SMILES)	Activation V1/2 (mV)
COCOc1ccc(C(F)(F)F)cc1NC(=O)NC(=O)[C@H](C)NS(=O)(=O)c1ccc([N+](=O)[O-])cc1 [Compound 15]	0±0

same assay, conditions: Conc. 30 µM; shift in voltage-dependence of inactivation

Structure (SMILES)	Inactivation ΔV0.3
COCOc1ccc(C(F)(F)F)cc1NC(=O)NC(=O)[C@H](C)NS(=O)(=O)c1ccc([N+](=O)[O-])cc1 [Compound 15]	−10±0

same assay, conditions: Conc. 30 µM; tail current relative to baseline

Structure (SMILES)	Amplitude I/Icon
COCOc1ccc(C(F)(F)F)cc1NC(=O)NC(=O)[C@H](C)NS(=O)(=O)c1ccc([N+](=O)[O-])cc1 [Compound 15]	0.5±0.04

same assay, conditions: Conc. 50 µM; deactivation time constant relative to baseline

Structure (SMILES)	Deactivation Δλ/λcon
COCOc1ccc(C(F)(F)F)cc1NC(=O)NC(=O)[C@H](C)N [Compound 16]	0.003±0.14
COCOc1ccc(C(F)(F)F)cc1NC(=O)NC(=O)[C@H](C)N(Cc1ccccc1)Cc1ccccc1 [Compound 17]	0.25±0.18

same assay, conditions: Conc. 50 µM; shift in voltage-dependence of activation

Structure (SMILES)	Activation V1/2 (mV)
COCOc1ccc(C(F)(F)F)cc1NC(=O)NC(=O)[C@H](C)N [Compound 16]	−19±3
COCOc1ccc(C(F)(F)F)cc1NC(=O)NC(=O)[C@H](C)N(Cc1ccccc1)Cc1ccccc1 [Compound 17]	−2±0

same assay, conditions: Conc. 50 µM; shift in voltage-dependence of activation; listed as MC-I-153b

Structure (SMILES)	Activation V1/2 (mV)
COCOc1ccc(C(F)(F)F)cc1NC(=O)NC(=O)[C@H](C)N [Compound 16]	left shifted the V1/2 of activation

same assay, conditions: Conc. 50 µM; shift in voltage-dependence of inactivation

Structure (SMILES)	Inactivation ΔV0.3
COCOc1ccc(C(F)(F)F)cc1NC(=O)NC(=O)[C@H](C)N [Compound 16]	−27±2
COCOc1ccc(C(F)(F)F)cc1NC(=O)NC(=O)[C@H](C)N(Cc1ccccc1)Cc1ccccc1 [Compound 17]	+4±0

same assay, conditions: Conc. 50 µM; tail current relative to baseline

Structure (SMILES)	Amplitude I/Icon
COCOc1ccc(C(F)(F)F)cc1NC(=O)NC(=O)[C@H](C)N [Compound 16]	0.3±0.02
COCOc1ccc(C(F)(F)F)cc1NC(=O)NC(=O)[C@H](C)N(Cc1ccccc1)Cc1ccccc1 [Compound 17]	0.95±0.03

same assay, conditions: Conc. 50 µM; tail current relative to baseline; listed as MC-I-153b

Structure (SMILES)	Amplitude I/Icon
COCOc1ccc(C(F)(F)F)cc1NC(=O)NC(=O)[C@H](C)N [Compound 16]	0.3
